Several values for one entry are separate records, joined by “and”; a condition that tells them apart may be missing. Identical values can stand only once.
Tests used:
TA1535 = assay: Ames Bacterial Reverse Mutation Assay
Experimental: The Ames Bacterial Reverse Mutation (AB™) used five bacterial tester strains (TA97a, TA98, TA100, TA1535, WP2-uvrA).
Tester strains were added to flasks containing nutrient broth and incubated at 37+2° C. overnight. The flasks were removed from the overnight incubation and the final concentration was determined (the OD was measured and determined whether growth was suitable for testing). Top agar was melted, and 2.0 mL was dispensed into heated culture tubes. The S9 mix (metabolic activation) was prepared and stored on ice. […] Each culture tube was vortexed and immediately poured onto the labeled minimal glucose agar plates. All plates were inverted and placed into a 37±1° C. incubator for 48-72 hours. The plates were counted via an automated colony counter or by hand and the background lawn was microscopically evaluated for any signs of toxicity. Genotypic control plates were prepared for each tester strain and incubated for 24-72 hours at 37±1° C.

DDX5 = DDX5 (Homo sapiens, UniProt P17844); assay: FL118 affinity column purification and mass spectrometry; type: binding; settings: SW620 protein lysates
Experimental: The process includes many experimental steps as described below.
Affinity purification column setup: (i) transfer the control resin slurry and the FL118-coupled resin slurry into two columns, respectively; (ii) allow resin to settle and then open the bottom cap to allow the solution to flow out to drain all the reaction solution; (iii) washing the column with 2 ml CB, and then with 2 ml ultrapure water/DMSO solution (75:25). […] Then additional 3×4 ml tris washing buffer (0.1 M Tris, pH 8.0).
After extensive washing with washing buffer, the proteins binding on the column were eluted with 8M urea buffers.
After digestion, the tryptic products were extracted twice and dried; the dried peptides were then reconstituted in 10 μL of 2% (v/v) formic acid for analysis with Liquid Chromatography Tandem Mass Spectrometry (LC-ESI-MS/MS). LC-ESI-MS/MS analysis of peptides was performed using a nano-ACQUITY UPLC system (Waters Corporation, Milford, MA) coupled through a nano-spray ionization source to a Quadrupole-Time-of-Flight (Q-ToF) Premier mass spectrometer (Micromass, Waters Corporation). […] The criteria used to identify the proteins included ion scores equal to or greater than the threshold significant ion score ([…]), and similarity between the observed protein molecular mass from gel electrophoresis and the calculated molecular mass provided in the database. […]

[1] = system: L5178Y TK+/− mouse lymphoma cells; assay: Mouse Lymphoma Assay (MLA); settings: for Avg. ACE / Avg. MF / Avg. RTG / Avg. SG: 4 h summary
Experimental: The cells were prepared in Fischer's or RPMI media supplemented with 10% heat-inactivated horse serum, penicillin-streptomycin, Lglutamine, sodium pyruvate and Pluronic F68. In the initial assay, prior to use in the test, the culture was purged of preexisting TK−/− mutations by exposure to THMG treated medium for 1 day, followed by a transfer to THG medium for 1 to 2 days. This was performed 5 to 8 days prior to testing. In the expanded assay a vial of frozen cells was thawed and used within 5 to 8 days of growth. No washing was needed because the cells were purged of preexisting TK−/− mutations by exposure to THMG treated medium for 1 day and then THG medium for 1 day prior to freezing. […] Colonies were counted using an automated colony counter or manually. After 4 or 24 hours of exposure, the cells were grown for recovery and expression for approximately 48 hours before plated in TFT cloning media. A second set of plates were prepared without TFT to assess viability of cells following treatment. […] Colonies observed on the TFT plate were defined as small or large colonies. […] (3) Of note, the metabolic activation system in this assay consisted of a rat liver homogenate (S-9 microsomal fraction), which was delivered to the test system in the presence of a core mix consisting of NADP and cofactors for NADPH-supported oxidation. The S9 was prepared using the following recipe (per treatment tube); 1 mL of 20 mg/mL S9, 32 mg of NADP, 60 mg of isocitric acid, 40 μL of calcium chloride (CaCl2) and 3.0 mL of cell cultural media. All treatments were performed in duplicate. The treatment tubes were placed in a CO2 incubator at 37±1° C. with continuous agitation.

[2] = Liver microsome stability; settings: for microsomal CLint at 0.5 μM / half-life at 0.5 μM: both; for microsomal CLint at 0.5 μM: CLint (intrinsic clearance); for microsomal CLint at 0.5 μM / half-life at 0.5 μM / % Remaining of Initial (n = 1): human liver microsome
[3] = TA1535 partial repeat, 0.010 μM −S9
[4] = TA1535 partial repeat, 0.10 μM −S9
[5] = TA1535 partial repeat, 1.0 μM −S9

Sequence of DDX5 (P17844 whole entry): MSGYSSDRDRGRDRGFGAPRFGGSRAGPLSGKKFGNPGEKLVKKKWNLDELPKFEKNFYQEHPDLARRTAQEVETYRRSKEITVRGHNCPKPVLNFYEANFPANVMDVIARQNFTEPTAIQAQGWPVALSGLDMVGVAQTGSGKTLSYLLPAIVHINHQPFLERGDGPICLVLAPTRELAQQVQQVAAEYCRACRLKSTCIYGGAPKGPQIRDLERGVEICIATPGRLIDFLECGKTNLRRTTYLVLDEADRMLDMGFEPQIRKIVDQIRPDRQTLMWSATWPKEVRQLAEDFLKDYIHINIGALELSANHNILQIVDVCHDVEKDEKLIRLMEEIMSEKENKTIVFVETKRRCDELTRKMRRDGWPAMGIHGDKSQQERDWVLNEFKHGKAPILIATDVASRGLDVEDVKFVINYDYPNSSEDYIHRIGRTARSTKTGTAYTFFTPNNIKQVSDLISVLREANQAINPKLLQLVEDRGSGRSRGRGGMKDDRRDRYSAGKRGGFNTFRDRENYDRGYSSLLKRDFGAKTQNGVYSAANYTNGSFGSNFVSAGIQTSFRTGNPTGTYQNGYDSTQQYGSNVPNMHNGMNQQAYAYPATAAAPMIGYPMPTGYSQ

What does the source list for `CCC1(O)C(=O)OCc2c1cc1n(c2=O)Cc2cc3cc4c(cc3nc2-1)OCO4` (stereo not drawn) [FL118]?
bacterial strain mutation (TA1535): does not induce; Background Lawn Code (TA1535; TA1535, 0.010 μM +S9): 1; Colony Counts Average (TA1535; TA1535, 0.010 μM +S9): 14; Colony Counts Replicate 1-3 (TA1535; TA1535, 0.010 μM +S9): 20 and 9 and 13; Background Lawn Code (TA1535; TA1535, 0.010 μM −S9): 1; Colony Counts Average (TA1535; TA1535, 0.010 μM −S9): 39; Colony Counts Replicate 1-3 (TA1535; TA1535, 0.010 μM −S9): 39 and 37 and 41; Background Lawn Code (TA1535; TA1535, 0.10 μM +S9): 1; Colony Counts Average (TA1535; TA1535, 0.10 μM +S9): 14; Colony Counts Replicate 1-3 (TA1535; TA1535, 0.10 μM +S9): 13 and 8 and 20; Background Lawn Code (TA1535; TA1535, 0.10 μM −S9): 1; Colony Counts Average (TA1535; TA1535, 0.10 μM −S9): 61; Colony Counts Replicate 1-3 (TA1535; TA1535, 0.10 μM −S9): 54 and 62 and 67; Background Lawn Code (TA1535; TA1535, 1.0 μM +S9): 1; Colony Counts Average (TA1535; TA1535, 1.0 μM +S9): 12; Colony Counts Replicate 1-3 (TA1535; TA1535, 1.0 μM +S9): 12 and 10 and 15; Background Lawn Code (TA1535; TA1535, 1.0 μM −S9): 1; Colony Counts Average (TA1535; TA1535, 1.0 μM −S9): 25; Colony Counts Replicate 1-3 (TA1535; TA1535, 1.0 μM −S9): 23 and 21 and 30; Background Lawn Code (TA1535; [3]): 1; Colony Counts Average (TA1535; [3]): 12; Colony Counts Replicate 1-3 (TA1535; [3]): 13 and 12 (2×); Background Lawn Code (TA1535; [4]): 1; Colony Counts Average (TA1535; [4]): 14; Colony Counts Replicate 1-3 (TA1535; [4]): 16 and 15 and 10; Background Lawn Code (TA1535; [5]): 1; Colony Counts Average (TA1535; [5]): 12; Colony Counts Replicate 1-3 (TA1535; [5]): 11 and 13 and 12; mean revertant colonies over negative control (TA1535; repeat assay, -S9 condition): less than 2 fold; binding to DDX5 (affinity purification, MS) (DDX5): physically binds; concentrations considered unable to induce mutation ([1]; 4-hour +S9): ≤ 320 nM; concentrations considered positive (mutagenic/clastogenic) ([1]; 4-hour -S9): > 100 nM; concentrations considered unable to induce mutation ([1]; 4-hour -S9): ≤ 32 nM; Average SG ([1]; 4 h, +S9, 0.1 uM): 12.9; Day 1 Growth Cell Conc. ([1]; 4 h, +S9, 0.1 uM): 6.71E+05 Cell/mL and 7.82E+05 Cell/mL; Day 2 Growth Cell Conc. ([1]; 4 h, +S9, 0.1 uM): 1.55E+06 Cell/mL and 1.64E+06 Cell/mL; Suspension Growth (SG) ([1]; 4 h, +S9, 0.1 uM): 11.4 and 14.3; Average SG ([1]; 4 h, +S9, 1 uM): 10.7; Day 1 Growth Cell Conc. ([1]; 4 h, +S9, 1 uM): 7.55E+05 Cell/mL and 6.56E+05 Cell/mL; Day 2 Growth Cell Conc. ([1]; 4 h, +S9, 1 uM): 1.27E+06 Cell/mL and 1.45E+06 Cell/mL; Suspension Growth (SG) ([1]; 4 h, +S9, 1 uM): 10.5 and 10.8; concentrations considered positive (mutagenic/clastogenic) ([1]; 4 hour +S9): > 1000 nM; Avg. ACE ([1]; +S9, 0.1 uM): 82.5%; Avg. MF ([1]; +S9, 0.1 uM): 71 ×10^−6; Avg. RTG ([1]; +S9, 0.1 uM): 98.8%; Avg. SG ([1]; +S9, 0.1 uM): 12.9; Avg. ACE ([1]; +S9, 1 uM): 62.3%; Avg. MF ([1]; +S9, 1 uM): 231 ×10^−6; Avg. RTG ([1]; +S9, 1 uM): 81.5%; Avg. SG ([1]; +S9, 1 uM): 10.7; Average SG ([1]; 24 h, 0.001 uM): 66.2; Suspension Growth (SG) ([1]; 24 h, 0.001 uM): 55.8 and 65.5; Average SG ([1]; 24 h, 0.1 uM): 29.1; Suspension Growth (SG) ([1]; 24 h, 0.1 uM): 29.0 and 29.1; concentrations considered positive (mutagenic/clastogenic) ([1]; 24 hour -S9): ≥ 100 nM; concentrations considered unable to induce mutation ([1]; 24 hour -S9): ≤ 32 nM; microsomal CLint at 0.5 μM ([2]; human, microsomes, calculated (in parentheses)): 18.6 µL/min/mg; microsomal CLint at 0.5 μM ([2]; human, microsomes, bound): < 23.1 µL/min/mg; half-life at 0.5 μM ([2]; human, microsomes, calculated (in parentheses), calculated half-life longer than the experiment): 1.25 h; half-life at 0.5 μM ([2]; human, microsomes, expressed as > the longest incubation time (60 min)): > 1 h; % Remaining of Initial (n = 1) ([2]; 0 min): 100%; % Remaining of Initial (n = 1) ([2]; 10 min): 93%; % Remaining of Initial (n = 1) ([2]; 20 min): 82%; % Remaining of Initial (n = 1) ([2]; 30 min): 76%; % Remaining of Initial (n = 1) ([2]; 60 min): 58%; half-life ([2]; human, microsomes): long half-life
